Laboratory results taken from the NIST ThermoML archive (doi:10.1016/j.jct.2013.01.015).
Numbers after ± are expanded uncertainties.

How the values were obtained:
[1] = refractive index (Na D-line) (dimensionless); conditions: 101.33 kPa, Liquid, Standard Abbe refractometry
[2] = 298.15 K; 101.33 kPa; Liquid; Vibrating tube method

Row | refractive index ([1]; 298.2 K) | mass density [2] | refractive index ([1]; 298.15 K) | SMILES
1 | 1.3976 ± 0.0008 | 952.7 ± 0.2 kg/m3 | – | CCCC(=O)O [butanoic acid]
2 | – | 815.2 ± 0.6 kg/m3 | 1.4155 ± 0.0009 | CCCCCCO [hexan-1-ol]
3 | – | 654.6 ± 0.3 kg/m3 | 1.3751 ± 0.0008 | CCCCCC [hexane]

Row | SMILES | refractive index ([1]; 298.2 K) | mass density [2] | refractive index ([1]; 298.15 K)
4 | O [water] | – | – | 1.3325 ± 0.0008
